Data taken from patent US20140050779A1, “[…]-2 INHIBITORS AND USES THEREOF” (SINGAPORE HEALTH SERVICES PTE. LTD., priority 2011, published 2014).

Columns and labels:
hM2 = target: T1, hM2 (Homo sapiens, UniProt P08172); assay: biochemical
T1 sequence (P08172 1-466): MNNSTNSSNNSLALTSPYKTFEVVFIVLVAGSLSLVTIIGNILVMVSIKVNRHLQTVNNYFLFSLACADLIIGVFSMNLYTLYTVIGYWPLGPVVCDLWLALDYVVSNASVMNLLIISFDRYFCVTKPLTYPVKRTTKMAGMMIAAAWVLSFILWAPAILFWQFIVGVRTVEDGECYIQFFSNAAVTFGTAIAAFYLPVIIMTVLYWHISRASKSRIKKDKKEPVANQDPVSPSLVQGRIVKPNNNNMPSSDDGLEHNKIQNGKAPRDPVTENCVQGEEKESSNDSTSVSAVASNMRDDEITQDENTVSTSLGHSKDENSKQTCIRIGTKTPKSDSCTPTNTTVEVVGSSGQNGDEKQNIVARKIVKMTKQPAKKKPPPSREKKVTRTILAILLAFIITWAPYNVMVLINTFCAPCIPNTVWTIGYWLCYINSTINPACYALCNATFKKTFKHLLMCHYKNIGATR
From the text: In some embodiments, the TG-2 inhibitors described herein can target the respective TG-2 protein and/or the expression of TGM-2. In other embodiments, the TG-2 inhibitors can further target at least one muscarinic receptor, for example M2 or M3 or inhibit the expression of at least one muscarinic receptor for example, M2 or M3.

[1] = test system: mouse eyes treated with −15D spectacle lens; assay: spectacle lens-induced myopia in mice, axial length and refractive error; type: in vivo; details: lens with 0.1% drug; for axial length: vs lens treated eyes; for refractive error: infrared photorefractor
Experimental: Topical applications were administered to both eyes at the same time each day (approximately 9:00 AM) commencing on the 12th day (initiation of spectacle lens treatment). A compatible drug level was determined prior to the in vivo use in a tissue culture study with mouse scleral fibroblasts. […] This treatment schedule continued for four weeks starting on post-natal day 12 continued until post-natal day 42. All measurements were taken at post-natal day 42, the equivalent of 4 weeks of spectacle lens wear.
Each eye was refracted every week to measure the refractive error using automated infrared photorefraction as described in Barathi, V. A., Beuerman, R. W., Schaeffel, F., 2009a, “Effects of unilateral topical atropine on binocular pupil responses and eye growth in mice”, Vision Res 49, 383-387. By using Optical Low Coherence Interferometry (OLCI, AC Master, Carl-Zeiss), the axial length of the eye was measured in-vivo as described in Yin G C, Gentle A, McBrien N A, “Muscarinic antagonist control of myopia: a molecular search for the M1 receptor in chick”, Mol. Vis. 2004; 13(10):787-93 and Barathi, V. A., Boopathi, V. G., Yap, E. P., Beuerman, R. W., 2008, “Two models of experimental myopia in the mouse”, Vision Res 48, 904-916. […] Differences of refractive power and axial length between eyes were calculated. Independent t-tests were used to compare experimental and control eyes in wild type and TGM2-deleted or M1-M5 mutant mice.
Right eyes were experimental and left eyes served as contra-lateral control. In vivo axial length was measured at 2 weeks and 4 weeks after treatment. […] Automated infrared photorefractor was used to measure the refractive error measurements.

TG-5 = assay: Western blot of TG proteins in mouse scleral fibroblasts after muscarinic agents; type: cell-based; details: 0.01-10 μM for 5 days
TGase 1 transcript = assay: qPCR of TGases mRNA in mouse scleral fibroblasts after muscarinic agents; type: cell-based; details: 0.01-10 μM for 5 days, qPCR normalized to GAPDH
Experimental: (§1) P2 cultured mouse scleral fibroblasts were treated with atropine or carbachol at different concentrations of 0.01 μM, 0.1 μM, […], 5 μM and 10 μM for 5 days. Following 5 days of treatment, the total RNA was extracted from these cells and TGases transcript level was quantified via qPCR analysis. Height of bars show the means of three independent samples and error bars represent standard deviation. Values are normalized against GAPDH house keeping genes.
(§2) All cells used in examples described herein were between passages 2-4. Passaged cells were plated at a concentration of 2×10^5/mL into 6 well plates containing DMEM with 10% FBS. The cells were seen to attach to the bottom of the culture wells after 4 hours. Old media was removed from wells and 1 mL of drug was added with fresh full medium and incubated at 37° C. Fresh drugs were replaced daily consecutively for the next 5 days to avoid oxidation. The drugs/media was removed and wells were washed twice with 1×PBS. 200 μl of RIPA lysis buffer was added per well and incubated for 5 minutes and cells were scrapped into an eppendorf tube. The cells were stored at −20° C. until sonication. The cells were sonicated on ice thrice at 20% output power for 5 seconds each time and rested 1 minute in between each turn. Cell debris was spun down at 12000 rpm for 20 minutes. The supernatant was poured into a new eppendorf tube and cell concentrations were determined using the Dc Protein assay Kit (Bio-Rad, MA). Passaged cells were plated at a concentration of 1×10^5 into 6 well plates containing DMEM with 10% FBS. The cells were seen to attach to the bottom of the culture wells after 4 hours. Freshly prepared muscarinic agents' at base line, 0.1, 1, 10 and 100 μM concentrations were added for 5 days (Table 2). The culture medium was removed and fresh medium containing the same muscarinic drug added every day to avoid drug changes such as atropine oxidation. Cell lysate was collected for relative quantitative (q) PCR and protein analysis at day 5.
(§3) Total RNA was isolated from cultured human and mouse scleral fibroblasts using TRIzol reagent (Invitrogen life technologies, USA) in accordance with the manufacturer's instructions Chomczynski P, Sacchi N., “Single-step method of RNA isolation by acid guanidinium thiocyanate-phenol-chloroform extraction”, Anal. Biochem. 1987 April; 162(1):156-9. Genomic DNA was removed by digestion with DNase I (Amp Grade; Invitrogen-Gibco) for 15 minutes at room temperature. One microgram of total RNA was reverse-transcribed with random hexamers by using a first-strand cDNA synthesis kit (Invitrogen-Gibco). qPCR was performed in a 384-well plate format on an Roche 480 LightCycler Detection System (Roche Applied Science, Mannheim, Germany) with efficiency corrected software 4.0. PCR was performed using 50 ng of cDNA of each sample. The pre-validated hydrolysis probes for TG-2 were from human and mouse universal probe library (Roche, CA) and the primers for human and mouse are shown in Table 3. GAPDH Internal Standard (Roche) was used as an endogenous control. To standardize and evaluate scleral gene expression, aliquots of the same cDNA (50 ng) preparation were used as templates in all PCR reactions. The data was analyzed by comparative CT (MCT) method as previously described in Brink N, Szamel M, Young A R, Wittern K P, Bergemann J., “Comparative quantification of IL-1, IL-10, Il-10r, TNF and IL-7 mRNA levels in UV-irradiated human skin in vivo”, Inflamm Res. 2000 June; 49(6):290-6.

TGase 5 transcript = assay: as above; type: cell-based; details: 0.01-10 μM for 5 days, qPCR normalized to GAPDH
Experimental: as §1, §2, §3

TGase-3 transcript = assay: as above; type: cell-based; details: 0.01-10 μM for 5 days, qPCR normalized to GAPDH
Experimental: as §1, §2, §3

SMILES	Kd (hM2)	reduction in the mouse myopia progression, among all the drugs ([1]; 2 weeks and 4 weeks)	axial length ([1]; 2 weeks and 4 weeks)	refractive error [1]	TG-5 protein level (TG-5)	TGase 1 transcript level (TGase 1 transcript)	TGase 5 transcript level (TGase 5 transcript)	TGase-3 transcript level (TGase-3 transcript)
C[C@@H]1OC(=O)[C@H]2C[C@H]3CCCC[C@@H]3[C@@H](/C=C/[C@H]3CCC[C@H](C)N3C)[C@@H]12 [himbacine]	4 nM	most significant amount of reduction	significantly reduced	shifted from myopic to hyperoic				
CN1[C@@H]2CC[C@H]1C[C@@H](OC(=O)C(CO)c1ccccc1)C2 (stereo partly shown) [atropine]			significantly reduced	shifted from myopic to hyperoic	reduced	down regulated	down regulated	upregulated
